Reference: patent US20210138025A1, “CATIONIC PEPTIDES WITH IMMUNOMODULATORY AND/OR ANTI-BIOFILM ACTIVITIES” (priority 2018, published 2021)
≈ marks a conversion by molar mass, not a printed value. Non-standard residues stand in square brackets, D forms with d. Residues, ends and D or L forms follow the SMILES beside them.

How the values were obtained:
Format in all cases: cell-based
[1] = system: Bordatella bronchiseptica (Bb)
Procedure: (§1) The following strains were assessed vs. Staphylococcus epidermidis (Se), Pseudomonas aeruginosa (Pa), Streptococcus dysgalactiae (Sd), Pasteurella multocida (Pm), Streptococcus agalactiae (Sa), Streptococcus uberis (Su), Streptococcus suis (Ss), Mannheimia haemolytica (Mh), Bordatella bronchiseptica (Bb), Histophilus somnus (Hs), and Staphylococcus pseudintermedius (Sp) (Table 18) for Minimal Inhibitory Concentrations (MIC). Italics=excellent activity (less than or equal to 4 μg/ml).

[2] = system: Histophilus somnus (Hs)
Procedure: as §1

[3] = system: Mannheimia haemolytica (Mh)
Procedure: as §1

[4] = system: Pasteurella multocida (Pm)
Procedure: as §1

[5] = system: Pseudomonas aeruginosa (Pa)
Procedure: as §1

[6] = system: Staphylococcus epidermidis (Se)
Procedure: as §1

[7] = system: Staphylococcus pseudintermedius (Sp)
Procedure: as §1

[8] = system: Streptococcus agalactiae (Sa)
Procedure: as §1

[9] = system: Streptococcus dysgalactiae (Sd)
Procedure: as §1

[10] = system: Streptococcus suis (Ss)
Procedure: as §1

[11] = system: Streptococcus uberis (Su)
Procedure: as §1

[12] = system: E. coli (Ec); details: Ec
[13] = system: S. aureus (Sau); details: Sau
[14] = system: Bordatella bronchiseptica (Bb); remark: listed apart in the source
Procedure: (§2) The same strains as in Table 18 were assessed for Minimal Biofilm Inhibitory Concentrations (MBIC) (Table 19). Italics=excellent activity (less than or equal to 4 μg/ml). ND=Not determined. Peptides 3013, 3015 and 3016 inhibited biofilm growth in the largest number of bacterial strains (5, 5 and 6 out of 13 strains, respectively).

[15] = system: Histophilus somnus (Hs); remark: listed apart in the source
Procedure: as §2

[16] = system: Mannheimia haemolytica (Mh); remark: listed apart in the source
Procedure: as §2

[17] = system: Pasteurella multocida (Pm); remark: listed apart in the source
Procedure: as §2

[18] = system: Pseudomonas aeruginosa (Pa); remark: listed apart in the source
Procedure: as §2

[19] = system: Staphylococcus epidermidis (Se); remark: listed apart in the source
Procedure: as §2

[20] = system: Staphylococcus pseudintermedius (Sp); remark: listed apart in the source
Procedure: as §2

[21] = system: Streptococcus agalactiae (Sa); remark: listed apart in the source
Procedure: as §2

[22] = system: Streptococcus dysgalactiae (Sd); remark: listed apart in the source
Procedure: as §2

[23] = system: Streptococcus suis (Ss); remark: listed apart in the source
Procedure: as §2

[24] = system: Streptococcus uberis (Su); remark: listed apart in the source
Procedure: as §2

[25] = system: E. coli (Ec); details: Ec; remark: listed apart in the source
[26] = system: S. aureus (Sau); details: Sau; remark: listed apart in the source
[27] = system: CCL5; assay: CCL5 production by peptide alone and in presence of LPS, bovine cells (Table 21); details: peptide 32 μg/ml
Procedure: (§3) A subset of peptides was tested for stimulation of the chemokine CCL5 (Table 21).

[28] = system: CCL5; assay: CCL5 production by peptide alone and in presence of Con A, canine cells (Table 21); details: peptide 32 μg/ml
Procedure: as §3

[29] = system: monocytes; assay: Cytokine production in unstimulated monocytes, bovine (Table 22); details: background subtracted
Procedure: A subset of peptides was tested for stimulation of cytokine production in monocytes (Table 22). For the tested cytokines, the peptides tended to show anti-inflammatory activity rather than […] activity.

In the case of `CC[C@@H](C)[C@@H](NC(=O)[C@@H](C)NC(=O)[C@@H](CCCNC(=N)N)NC(=O)[C@@H](Cc1c[nH]c2ccccc12)NC(=O)[C@@H](CCC(N)=O)NC(=O)[C@H](N)C(C)C)C(=O)N[C@H](CCCNC(=N)N)C(=O)N[C@@H](C(=O)N[C@H](CCCNC(=N)N)C(=O)N[C@@H](C(=O)N[C@@H](C(=O)N[C@H](CCCNC(=N)N)C(N)=O)[C@H](C)CC)C(C)C)C(C)C` [DJK5, VQWRAIRVRVIR] (H-[dV][dQ][dW][dR][dA][dI][dR][dV][dR][dV][dI][dR]-NH2; N-terminus and C-terminus assumed), the “MIC Bb” value [1] is reported as 4 mg/L (≈ 2.58 µM), the “MIC Hs” value [2] is reported as 32 mg/L (≈ 20.6 µM) and the “MIC Mh” value [3] is reported as 8 mg/L (≈ 5.16 µM). The “MIC Pm” value [4] was 8 mg/L (≈ 5.16 µM), the “MIC Pa” value [5] was 4 mg/L (≈ 2.58 µM) and the “MIC Se” value [6] was 2 mg/L (≈ 1.29 µM). For the same compound, the “MIC Sp” value [7] was <1 mg/L, the “MIC Sa” value [8] was 2 mg/L (≈ 1.29 µM) and the “MIC Sd” value [9] was <1 mg/L. For the same compound, the “MIC Ss” value [10] was <1 mg/L, the “MIC Su” value [11] was <1 mg/L and the “MIC E. coli” value [12] was <1 mg/L. For the same compound, the “MIC Ec” value [12] was <1 mg/L, the “MIC S. aureus” value [13] was 2 mg/L (≈ 1.29 µM) and the “MIC Sau” value [13] was 2 mg/L (≈ 1.29 µM). For the same compound, the MBIC [14] was 2 µg/mL, the MBIC [15] was <1 µg/mL and the MBIC [16] was 4 µg/mL. The MBIC [17] was 2 µg/mL, the MBIC [18] was 8 µg/mL and the MBIC [19] was 2 µg/mL. For the same compound, the MBIC [20] was <1 µg/mL, the MBIC [21] was 2 µg/mL and the MBIC [22] was 2 µg/mL. For the same compound, the MBIC [23] was 4 µg/mL, the MBIC [24] was 2 µg/mL and the MBIC [25] was <1 µg/mL. For the same compound, the “MBIC E. coli” value [25] was <1 µg/mL, the MBIC [26] was <1 µg/mL and the “MBIC S. aureus” value [26] was <1 µg/mL. The “Concentration of CCL5 in the absence of stimulation by LPS or ConA” value (from here on “Concentration of CCL5”) ([27]; Bovine Monocyte) was 825, the “Concentration of CCL5” value ([27]; Bovine T-cells) was 195 and the “% CCL5 production relative to that of LPS/ConA” value ([27]; Bovine/LPS Monocyte) was 105%. The “% CCL5 production relative to that of LPS/ConA” value ([27]; Bovine/LPS T-cells) was 79%, the “Concentration of CCL5” value ([28]; Canine Monocyte) was 442 and the “Concentration of CCL5” value ([28]; Canine T-cells) was 290. The “% CCL5 production relative to that of LPS/ConA” value ([28]; Canine/ConA Monocyte) was 81%, the “% CCL5 production relative to that of LPS/ConA” value ([28]; Canine/ConA T-cells) was 26% and the “Concentration of Monocyte cytokine IFNγ in absence of additional stimulant” value [29] was -3 pg/mL. For the same compound, the “Concentration of Monocyte cytokine IL-2 in absence of additional stimulant” value [29] was -103 pg/mL, the “Concentration of Monocyte cytokine IL-4 in absence of additional stimulant” value [29] was -196 pg/mL and the “Concentration of Monocyte cytokine IL-6 in absence of additional stimulant” value [29] was 75 pg/mL. For the same compound, the “Concentration of Monocyte cytokine IL-13 in absence of additional stimulant” value [29] was 294 pg/mL.
